Results taken from patent US9718794B2, “Crystalline forms of tyrosine kinase inhibitors and their salts” (Purdue Pharma L.P., priority 2013, dated 2017).

How the values were obtained:
[1] = Rat pharmacokinetics (IV and PO, plasma); format: in vivo; conditions: male, CD IGS, PO 100 mg/kg, mean
Description: Rat Pharmacokinetics. Compound I was dosed to nonfasted male CD IGS rats (weighting 180-250 g, Charles River Laboratories) by single intravenous (IV, n=3/group) or oral gavage (PO, n=4/group, including control rat group for drug-free blood and brain collection) administration at a nominal dose levels of 3 mg/kg (IV) or 5 mg/kg (IV) and 10, 50, 100 mg/kg (PO) respectively. Compound was formulated in either DMSO/Solutol® HS 15/phosphate buffered saline, pH 7.4 (PBS) for both IV and PO dosing, or 10% (w/v) Povidone K12 in water for IV dosing or 10% (w/v) Povidone K25 in water for PO dosing, or 18% (w/v) CrosPovidone in water for PO dosing. An intravenous profile was obtained by taking serial or terminal blood samples at 3, 10, 30, 60, 120, 240, 360, 1440 min post dose. An oral profile was obtained by taking serial or terminal blood samples at 10, 30, 60, 120, 240, 360, 480, 1440 min post dose.
Plasma Sample Collection from Rats. Animals were sedated under general inhalant anesthesia (3% isoflurane) for blood collection by cardiac puncture. […]
Plasma and brain samples were subjected to quantitative analysis by LC-MS/MS using compound-specific mass transitions. […] The concentrations of the test compound in brain (ng/g brain tissue) and in plasma (ng/mL) as well as the ratio of the brain concentration and the plasma concentration at each time point were determined and reported.

[2] = system: CFA-induced inflammatory pain; test: Rat CFA-induced inflammatory pain model; format: in vivo; conditions: 50 μL of 1 mM s.c. into the paw 3 hours after CFA
Description: Rat CFA-induced Inflammatory Pain Model. Hyperalgesia was induced by subcutaneously injecting 50 μL of CFA (Sigma-Aldrich, St. Louis, Mo., USA) into the plantar surface of the left hind paw of the rats using a 30-gauge hypodermic needle under sevoflurane anesthesia. The classical signs of inflammation, including edema and redness, for up the last day of tests were recorded. To assess the effect of test article on CFA-induced inflammatory pain, the rats were anesthetized with sevoflurane 3 hours after CFA injection and then injected 50 μL of either 1 mM test article (n=6) or Saline (n=4) subcutaneously (S.C.) into the same site as the CFA injection, using a 30-gauge hypodermic needle under sevoflurane anesthesia, according to published method (Ueda K., et al, J Pharmacol. Sci., 2010; 112(4):438-43). Paw withdrawal latencies (thermal hyperalgesia) are measured before and at […] 2, 4, and 7 days after CFA injection. Mechanical thresholds were also measured in the same way with either Formula 1 compound (n=6) or Saline (n=4) at similar different time points (for example, 1, 3 hour and 3 days). The noxious heat and mechanical thresholds were separately measured in each group of rats. The threshold was measured 3-5 times in each rat and then averaged.

[3] = system: CCI neuropathic pain (mechanical allodynia); test: Chronic constriction injury (CCI) model of neuropathic pain in rat; format: in vivo; conditions: for observed side effects in dosed CCI-rats: single oral dose
Text: Chronic Constriction Injury (CCI) Model of Neuropathic Pain in Rat. The CCI model is one of the most commonly used mono-neuropathic pain model firstly described in details by Bennett and Xie (Bennett CJ, Xie YK. Pain. 1988;33(1):87-107). It mimics important clinical chronic pain symptoms such as mechanical allodynia and thermal hyperalgesia, Chronic constriction injury of the sciatic nerve was produced by tying four loose ligatures around the left sciatic nerve according to the method of Bennett and. Xie. […] Calibrated von Frey filaments were used to determine the lowest mechanical (tactile) threshold required to evoke a brisk paw withdrawal reflex in the rat hindpaws. Rats were allowed to acclimatize in wire mesh cages for 15-20 min prior to von Frey testing. Assessment of paw withdrawal thresholds (PWTs) using von Frey filaments was undertaken prior to CCI-surgery (pre-surgery baseline on day 0). Before the drug dosing on day 14, the pre-dose baseline was recorded for each rat. […] Drug-naïve CCI-rats (n=4 - 6 per group) were used. The oral (PO) gavage vehicle was either 10% (w/v) Povidone K25 in water for PO dosing, or 18% (w/v) CrosPovidone in water for PO dosing, or 0.5% CMC-Na/0.1% Tween 80in distilled water for PO dosing. The positive control gabapentin was dissolved in the vehicle and orally given at 100 mg/kg (by oral gavage). Test article was dissolved or suspended in the vehicle and orally given at 25, 50, 100 and 150 mg/kg. Each CCI-rat was administered a single oral dose of test article, gabapentin or vehicle control, 2 hours before assessment of PWT.

[4] = system: SNL neuropathic pain (mechanical allodynia); test: Spinal nerve ligation (SNL) mono-neuropathic pain model in rat; format: in vivo; conditions: SNL rats, oral administration
Description: Spinal Nerve Ligation (SNL) Mono-Neuropathic Pain Model in Rat. The surgical procedure will be performed according to the method firstly described by Kim and Chung (Kim SH, Chung JM. Pain. 1992;50(3):355-63.). This procedure will result in tactile allodynia in the left hindpaw. […] The dose-reverse anti-allodynia effects of test compound: on day 14 after surgery, rats were treated with test article at one of four doses, vehicle or positive control by oral gavage, and PWT was determined by calibrated von Frey filaments at time points of 0 (right before the drug dosing, Pre-Dose Baseline), 0.5, 1, 2, 4 and 6 hr. The anti-allodynia effects of repeated administration of test article: Administration of test article was started on day 7 after surgery, once a day for 7 days. PWT was determined by calibrated von Frey filaments, 2 hour after test article dosing each day. After 7 days dosing, the measurement were continued, every other day without compound dosing for another 7 days. PWT was determined at the time points as given above.

[5] = Accelerated stability test (XRPD and Raman); format: physicochemical; conditions: 1 week
Description: X-ray Powder Diffraction (XRPD). Approximately 2 mg of sample was gently compressed on the XRPD zero back ground single obliquely cut silica sample holder. The sample was then loaded into a D/MAX 2200 X-ray powder diffractometer (Rigaku) or a Philips X-Pert MPD diffractometer and analyzed using the following experimental conditions (Tube anode: Cu; Generator tension: 40 kV; Tube current: 40 mA; Wavelength alphal: 1.54056 Å; Wavelength alpha2: 1.5444 Å; Start angle [2 theta]: 5; End angle [2 theta]: 50; and Continuous scan). For suspected novel forms a slightly slower scan speed was used over a range of 4-40°2θ.
Raman spectroscopy. Samples were analyzed by a Nicolet Almega XR Dispersive Raman Microscope for its Raman spectrum using the following conditions (Exposure Time: 1.0 s; Acquisition No: 10; Pinhole Size: 25, 50 or 100 μm; Wavelength range: 2000˜300 cm^−1 (single grating); Laser: He-Ne 780 nm 100% power; Objective: 20×/0.40 or 50×/0.75 (magnifier/numerical aperture number)). Then the measured Raman spectra were corrected by baseline subtraction using the software OMNIC™v7.3.

TrkA (human full length) = target: T1, TrkA (human full length) (Homo sapiens, UniProt P04629); test: PathHunter whole cell functional assay, NGF stimulated TrkA activation (U2OS); format: cell-based; conditions: U2OS PathHunter cells, mean of triplicate; read-out: cellular IC50, NGF stimulated TrkA activation
T1 construct: expressed recombinantly on the intracellular C-terminus of TrkA (human full length); host or cells: U2OS
T1 sequence (P04629 33-796): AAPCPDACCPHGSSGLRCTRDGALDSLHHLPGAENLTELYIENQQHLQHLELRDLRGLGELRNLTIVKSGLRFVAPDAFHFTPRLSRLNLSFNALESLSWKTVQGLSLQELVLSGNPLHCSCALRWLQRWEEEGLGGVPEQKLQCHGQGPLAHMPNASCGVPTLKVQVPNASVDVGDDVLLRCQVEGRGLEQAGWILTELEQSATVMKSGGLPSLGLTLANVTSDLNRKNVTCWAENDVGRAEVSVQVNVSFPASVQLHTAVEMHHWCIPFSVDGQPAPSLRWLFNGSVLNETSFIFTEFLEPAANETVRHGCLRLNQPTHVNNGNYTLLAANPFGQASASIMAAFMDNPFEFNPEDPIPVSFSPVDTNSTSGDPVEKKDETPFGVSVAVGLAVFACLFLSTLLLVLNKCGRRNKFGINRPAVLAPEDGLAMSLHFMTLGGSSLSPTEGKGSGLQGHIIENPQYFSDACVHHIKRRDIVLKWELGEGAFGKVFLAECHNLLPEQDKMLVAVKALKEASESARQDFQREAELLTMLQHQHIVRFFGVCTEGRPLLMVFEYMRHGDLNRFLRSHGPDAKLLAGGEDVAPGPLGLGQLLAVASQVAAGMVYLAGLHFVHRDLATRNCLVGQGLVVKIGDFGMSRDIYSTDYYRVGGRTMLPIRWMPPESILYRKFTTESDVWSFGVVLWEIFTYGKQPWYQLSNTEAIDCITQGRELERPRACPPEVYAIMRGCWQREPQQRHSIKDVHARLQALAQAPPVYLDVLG
Text: Compound inhibition in a live, whole cell based functional assay: There are several methods to measure whole length TrkA activation stimulated by its natural ligand or agonist NGF in live cells. For example, the PathHunter Profiling services offered by DiscoveRx (Fremont, Calif.). The PathHunter technology is an adaptation of enzyme fragment complementation that provides a novel, generic functional cell-based assay format for detecting protein-protein interaction. In this cell-based assay approach, with U2OS cell background, a small peptide epitope (PK) is expressed recombinantly on the intracellular C-terminus of TrkA (human full length). This is co-expressed with a larger sequence, termed enzyme acceptor (EA) that is attached to a cytoplasmic protein SHC1 which will interact with TrkA intracellularly. NGF induced activation of TrkA receptor causes either homo- or hetero-dimerization of TrkA resulting in cross-phosphorylation. The SHC1-EA fusion protein then binds the phosphorylated TrkA receptor forcing complementation of the PK and EA fragment. This interaction generates an active beta-galactosidase enzyme, which is detected using a chemiluminescent substrate.

Row | Structure (SMILES) | bioavailability [1] | analgesic effect (FIG. 1) [2] | effect on mechanical allodynia (FIG. 2) ([3]; CCI rats, single oral dose 25, 50, 100 and 150 mg/kg, PWT 2 hours after dosing) | observed side effects in dosed CCI-rats [3] | effect on mechanical allodynia [4] | stability by XRPD and Raman ([5]; 40° C./75% RH) | stability by XRPD and Raman ([5]; 80° C.) | IC50 (TrkA (human full length))
1 | O=C([O-])c1ccc(Nc2cc(N3CCN(C4CCCCC4)CC3)c3noc4c3c2C(=O)c2ccccc2-4)cc1.[Na+] [Compound I, Sodium 4-((3-(4-cyclohexylpiperazin-1-yl)-6-oxo-6H-anthra[1,9-cd]isoxazol-5-yl)amino)benzoate] | ~100% | efficacious in relieving the pain | significantly reduced mechanical allodynia | no such effect or other abnormality was observed | significantly reduced mechanical allodynia | no instability | no instability | 
2 | NCC1(CC(=O)O)CCCCC1 [gabapentin, reference compound] |  |  |  | drowsiness or motor incoordination |  |  |  | 
3 | O=C(O)c1ccc(Nc2cc(N3CCN(C4CCCCC4)CC3)c3noc4c3c2C(=O)c2ccccc2-4)cc1 [Compound C] |  |  |  |  |  |  |  | ~0.05 µM
